Activity calls are given as the source filed them. No cut-off for these calls is given here.

For orientation: IC50 means the concentration that inhibits the measured activity by half.

One test deals with SU-DHL-2. The test can be described thus: Cytotoxicity against human SUDHL2 cells assessed as inhibition of cell growth incubated for 48 hrs by CCK8 assay. The class given is functional, cell-based. As to conditions: SU-DHL-2, 48 h. A general note: Formazan colour is commonly taken as a measure of viable cells.
The test system of test [1] is HL-60. The test can be described thus: Cytotoxicity against human HL-60 cells assessed as inhibition of cell growth incubated for 48 hrs by CCK8 assay. The class given is functional, cell-based. Conditions: HL-60, 48 h.
Test [2] has as its system HL-60. Briefly: Induction of cell cycle arrest in human HL-60 cells assessed as accumulation of G1 phase cells at 7 uM incubated for 48 hrs (reference value: 42.0%). The class given is functional.
For test [3], the system named is HL-60. Briefly: Induction of cell cycle arrest in human HL-60 cells assessed as S phase cells at 7 uM incubated for 48 hrs (reference value: 32.3%). The class given is functional.
In test [4] the test system is HL-60. The test can be described thus: Induction of cell cycle arrest in human HL-60 cells assessed as G2 phase cells at 7 uM incubated for 48 hrs (reference value: 23.7%). The class given is functional.
Test [5] has as its system HL-60. Briefly: Induction of cell cycle arrest in human HL-60 cells assessed as accumulation of G1 phase cells at 14 uM incubated for 48 hrs (reference value: 42.0%). The class given is functional.
The subject of test [6] is HL-60. The test can be described thus: Induction of cell cycle arrest in human HL-60 cells assessed as S phase cells at 14 uM incubated for 48 hrs (reference value: 32.3%). The class given is functional.
Test [7] deals with HL-60. The test can be described thus: Induction of cell cycle arrest in human HL-60 cells assessed as G2 phase cells at 14 uM incubated for 48 hrs (reference value: 23.7%). The class given is functional.
Test [8] has as its system HL-60. Briefly: Induction of apoptosis in human HL-60 cells assessed as viable cells at 7 uM incubated for 48 hrs by Annexin V-FITC/PI staining based flow cytometric analysis (reference value: 84.1%). The class given is functional. Conditions: read-out: Activity.
Test [9] relates to HL-60. Briefly: Induction of apoptosis in human HL-60 cells assessed as early apoptotic cells at 7 uM incubated for 48 hrs by Annexin V-FITC/PI staining based flow cytometric analysis (reference value: 11.0%). The class given is functional. On the technique in general: A flow cytometer gives signals particle by particle.
Test [10] concerns HL-60. The test can be described thus: Induction of apoptosis in human HL-60 cells assessed as late apoptotic cells at 7 uM incubated for 48 hrs by Annexin V-FITC/PI staining based flow cytometric analysis (reference value: 4.53%). The class given is functional.
The subject of test [11] is HL-60. The test can be described thus: Induction of apoptosis in human HL-60 cells assessed as necrotic cells at 7 uM incubated for 48 hrs by Annexin V-FITC/PI staining based flow cytometric analysis (reference value: 0.39%). The class given is functional.
Test [12] deals with HL-60. Briefly: Induction of apoptosis in human HL-60 cells assessed as viable cells at 14 uM incubated for 48 hrs by Annexin V-FITC/PI staining based flow cytometric analysis (reference value: 84.1%). The class given is functional. As to conditions: read-out: Activity.
Test [13] concerns HL-60. The test can be described thus: Induction of apoptosis in human HL-60 cells assessed as early apoptotic cells at 14 uM incubated for 48 hrs by Annexin V-FITC/PI staining based flow cytometric analysis (reference value: 11.0%). The class given is functional.
The subject of test [14] is HL-60. Briefly: Induction of apoptosis in human HL-60 cells assessed as late apoptotic cells at 14 uM incubated for 48 hrs by Annexin V-FITC/PI staining based flow cytometric analysis (reference value: 4.53%). The class given is functional.
The test system of test [15] is HL-60. The test can be described thus: Induction of apoptosis in human HL-60 cells assessed as necrotic cells at 14 uM incubated for 48 hrs by Annexin V-FITC/PI staining based flow cytometric analysis (reference value: 0.39%). The class given is functional.
Test [16] relates to RAW264.7. The test can be described thus: Antiinflammatory activity in mouse RAW264.7 cells assessed as inhibition of LPS-induced NO production preincubated with compound for 1 hrs followed by LPS stimulation and measured after 24 hrs by Griess reagent based method. The class given is functional, cell-based.
Test [17] relates to RAW264.7. The test can be described thus: Antiinflammatory activity in LPS-induced mouse RAW264.7 cells assessed as reduction in COX2 mRNA expression at 5 to 20 uM incubated for 24 hrs by qRT-PCR analysis. The class given is functional, cell-based. As to conditions: dose 5-20 µM. (In general: Real-time PCR tracks product formation cycle by cycle.)
Test [18] deals with RAW264.7. Briefly: Antiinflammatory activity in LPS-induced mouse RAW264.7 cells assessed as reduction in iNOS mRNA expression at 5 to 20 uM incubated for 24 hrs by qRT-PCR analysis. The class given is functional, cell-based. As to conditions: dose 5-20 µM.
Test [19] concerns RAW264.7. Briefly: Antiinflammatory activity in LPS-induced mouse RAW264.7 cells assessed as reduction in IL-1beta mRNA expression at 5 to 20 uM incubated for 24 hrs by qRT-PCR analysis. The class given is functional, cell-based. Conditions: dose 5-20 µM.
Test [20] concerns RAW264.7. The test can be described thus: Antiinflammatory activity in mouse RAW264.7 cells assessed as inhibition of LPS-induced nuclear translocation of NF-kappaB p65 preincubated with compound for 1 hrs followed by LPS stimulation and measured after 24 hrs by DAPI staining based immunofluorescence analysis. The class given is functional, cell-based. As to conditions: dose 5-20 µM, time 25.0 hrs.

Test [21] relates to RAW264.7. The test can be described thus: Antiinflammatory activity in LPS-induced mouse RAW264.7 cells assessed as reduction in COX-2 protein expression by Western blot analysis. The class given is functional, cell-based. Conditions: dose 5-20 µM.

Consider `Cc1cc2c(c3c1C[C@@H](O)CC3)CC[C@@]1(C)[C@H]2CCC(=O)[C@@]1(C)/C=C/[C@H](C)C(C)C`, for which the values for the IC50 in the test with SU-DHL-2, in the test on HL-60 [1] and in the test on RAW264.7 [16] were 6.9 µM, 8.7 µM and 19.3 µM, respectively. Also, the Activity in the test on HL-60 [2] worked out at 53.9%; in the test on HL-60 [3] it was 24.7%; in the test on HL-60 [4], 16.1%; in the test on HL-60 [5] it was 62.3%; in the test on HL-60 [6], 24.9%; with HL-60 [7] it was 9.7%. The Activity was 12.1% with HL-60 [9]; 11% with HL-60 [10]; 0.57% with HL-60 [11]; 21.9% in the test on HL-60 [13]; 53.8% in the test on HL-60 [14]; 2.95% in the test with HL-60 [15]. Besides, the Activity result in the test on RAW264.7 [20] and in the test with RAW264.7 [21] was “Dose-Dependent Effect” each time. In addition, the viability at 7 µM in the test on HL-60 [8] is 76.3%. Also, the viability at 14 µM in the test with HL-60 [12] turned out to be 21.3%. The outcome in the test on RAW264.7 [17], in the test on RAW264.7 [18] and in the test on RAW264.7 [19] was Active.

The values are drawn from ChEMBL document CHEMBL5360585, “Spectasterols, Aromatic Ergosterols with 6/6/6/5/5, 6/6/6/6, and 6/6/6/5 Ring Systems from Aspergillus spectabilis” (J Nat Prod, 2023).
